Here are results for two compounds from ChEMBL document CHEMBL6182861, “Structural modification of heptamethine indocyanine dyes with improved aqueous solubility and stability for photothermal therapy” (Eur J Med Chem, 2025).

Series [1] has as its system 4T1. Put plainly: Antitumor activity against mouse 4T1 cells implanted in female BALB/c mouse assessed as cellular damage at 2.5 mg/kg, iv pretreated for 4 hrs followed by exposure to laser irradiation of 808 nm for 5 mins on every 2 days treated for 15 days by H and E staining based analysis. The class given is functional, organism-based. Particulars: time 15.0 day.

Series [2] in a line: Toxicity in female BALB/c mouse bearing mouse 4T1 cells assessed as damage in kidney at 2.5 mg/kg, iv pretreated for 4 hrs followed by exposure to laser irradiation of 808 nm for 5 mins on every 2 days treated for 15 days by H and E staining based analysis. The class given is organism-based. Particulars: in vivo, 360 h, time 15 day.
A short description of series [3]: Toxicity in female BALB/c mouse bearing mouse 4T1 cells assessed as damage in liver at 2.5 mg/kg, iv pretreated for 4 hrs followed by exposure to laser irradiation of 808 nm for 5 mins on every 2 days treated for 15 days by H and E staining based analysis. The class given is organism-based. Particulars: in vivo, 360 h, time 15 day.
Series [4] concerns 4T1. Put plainly: Antitumor activity against mouse 4T1 cells implanted in female BALB/c mouse assessed as tumor growth inhibition at 2.5 mg/kg, iv pretreated for 4 hrs followed by exposure to laser irradiation of 808 nm for 5 mins on every 2 days treated for 15 days. Particulars: time 15.0 day. The class given is functional, organism-based.
Series [5] concerns 4T1. Put plainly: Antitumor activity against mouse 4T1 cells implanted in female BALB/c mouse assessed as cellular damage at 2.5 mg/kg, iv treated on every 2 days treated for 15 days by H and E staining based analysis. Conditions: time 15.0 day. The series is classed as functional, organism-based.
Series [6] concerns 4T1. Kind of series: Antitumor activity against mouse 4T1 cells implanted in female BALB/c mouse assessed as necrotic tissue at 2.5 mg/kg, iv pretreated for 4 hrs followed by exposure to laser irradiation of 808 nm for 5 mins on every 2 days treated for 15 days by H and E staining based analysis. Conditions: time 15.0 day. The class given is functional, organism-based.
A short description of series [7]: Drug accumulation in tumor of female BALB/c mouse bearing mouse 4T1 cells assessed as increase in fluorescence intensity at 2.5 mg/kg, iv measured after 4 hrs by fluorescence imaging analysis. The series is classed as ADME, organism-based, Neoplasm. Conditions: in vivo.
Series [8] concerns 4T1. Put plainly: Cytotoxicity against mouse 4T1 cells assessed as cell viability under dark condition up to 25 uM incubated for 24 hrs by MTT assay relative to control. The class given is functional. In general terms: Tetrazolium assays rely on reduction of a dye to a coloured formazan, in cell work by metabolically active cells.
In series [9] the test system is 4T1. Kind of series: Antitumor activity against mouse 4T1 cells implanted in female BALB/c mouse assessed as decrease in tumor weight at 2.5 mg/kg, iv pretreated for 4 hrs followed by exposure to laser irradiation of 808 nm for 5 mins on every 2 days treated for 15 days. The class given is functional, organism-based. Conditions: time 15.0 day.
In series [10] the test system is Mus musculus. Put plainly: Photothermal effect in female BALB/c mouse bearing mouse 4T1 cells at approximately 50 degreeC at 2.5 mg/kg, iv pretreated for 4 hrs followed by exposure to laser irradiation of 808 nm for 5 mins. The class given is functional, organism-based. Particulars: time 245.0 min.
The subject of series [11] is 4T1. Put plainly: Antitumor activity against mouse 4T1 cells implanted in female BALB/c mouse assessed as decrease in tumor volume at 2.5 mg/kg, iv treated for 4 hrs on every 2 days treated for 15 days. Particulars: time 15.0 day. The series is classed as functional, organism-based.
The subject of series [12] is 4T1. Put plainly: Antitumor activity against mouse 4T1 cells implanted in female BALB/c mouse assessed as loosely arranged cells at 2.5 mg/kg, iv pretreated for 4 hrs followed by exposure to laser irradiation of 808 nm for 5 mins on every 2 days treated for 15 days by H and E staining based analysis. The class given is functional, organism-based. Conditions: time 15.0 day.

The nature of series [13]: Toxicity in female BALB/c mouse bearing mouse 4T1 cells assessed as body weight at 2.5 mg/kg, iv pretreated for 4 hrs followed by exposure to laser irradiation of 808 nm for 5 mins on every 2 days treated for 15 days. The series is classed as organism-based. Particulars: in vivo, 360 h, time 15 day.
Series [14] is described as follows: Toxicity in ICR mouse bearing mouse H22 cells assessed as damage in lung at 2.5 mg/kg, iv pretreated for 4 hrs followed by exposure to laser irradiation of 808 nm for 5 mins on every 2 days treated for 15 days by H and E staining based analysis. Conditions: in vivo, 360 h, time 15 day. The class given is organism-based.
The nature of series [15]: Toxicity in ICR mouse bearing mouse H22 cells assessed as damage in liver at 2.5 mg/kg, iv pretreated for 4 hrs followed by exposure to laser irradiation of 808 nm for 5 mins on every 2 days treated for 15 days by H and E staining based analysis. The series is classed as organism-based. Particulars: in vivo, 360 h, time 15 day.
Series [16] is described as follows: Toxicity in female BALB/c mouse bearing mouse 4T1 cells assessed as damage in lung at 2.5 mg/kg, iv pretreated for 4 hrs followed by exposure to laser irradiation of 808 nm for 5 mins on every 2 days treated for 15 days by H and E staining based analysis. The class given is organism-based. Conditions: in vivo, 360 h, time 15 day.
Series [17] is described as follows: Toxicity in female BALB/c mouse bearing mouse 4T1 cells assessed as damage in heart at 1.8 mg/kg, iv pretreated for 4 hrs followed by exposure to laser irradiation of 808 nm for 5 mins on every 2 days treated for 15 days by H and E staining based analysis. The series is classed as organism-based. Conditions: in vivo, 360 h, time 15 day.
Series [18] in a line: Toxicity in ICR mouse bearing mouse H22 cells assessed as damage in heart at 1.8 mg/kg, iv pretreated for 4 hrs followed by exposure to laser irradiation of 808 nm for 5 mins on every 2 days treated for 15 days by H and E staining based analysis. The class given is organism-based. Conditions: in vivo, 360 h, time 15 day.
Series [19] is described as follows: Toxicity in ICR mouse bearing mouse H22 cells assessed as damage in liver at 1.8 mg/kg, iv pretreated for 4 hrs followed by exposure to laser irradiation of 808 nm for 5 mins on every 2 days treated for 15 days by H and E staining based analysis. The class given is organism-based. Conditions: in vivo, 360 h, time 15 day.
Series [20] relates to Mus musculus. Kind of series: Photothermal effect in female BALB/c mouse bearing mouse 4T1 cells at 42 degreeC at 1.8 mg/kg, iv pretreated for 4 hrs followed by exposure to laser irradiation of 808 nm for 5 mins. The class given is functional, organism-based. Particulars: time 245.0 min.
The nature of series [21]: Drug excretion in female BALB/c mouse bearing mouse 4T1 cells at 1.8 mg/kg, iv measured up to 12 hrs by fluorescence imaging analysis. Particulars: in vivo. The series is classed as ADME, organism-based.
Series [22] in a line: Toxicity in ICR mouse bearing mouse H22 cells assessed as damage in spleen at 1.8 mg/kg, iv pretreated for 4 hrs followed by exposure to laser irradiation of 808 nm for 5 mins on every 2 days treated for 15 days by H and E staining based analysis. The series is classed as organism-based. Particulars: in vivo, 360 h, time 15 day.
Series [23] relates to 4T1. Put plainly: Antitumor activity against mouse 4T1 cells implanted in female BALB/c mouse assessed as decrease in tumor volume at 1.8 mg/kg, iv treated for 4 hrs on every 2 days treated for 15 days. The class given is functional, organism-based. Particulars: time 15.0 day.
Another series has as its system HepG2. Put plainly: Photothermal cytotoxicity against human HepG2 cells up to 25 uM preincubated for 4 hrs followed by exposure to laser irradiation of 808 nm for 2 mins and subsequent incubation for 20 hrs by MTT assay. The class given is functional, cell-based. Conditions: time 1442.0 min.
A short description of series [24]: Drug accumulation in tumor of female BALB/c mouse bearing mouse 4T1 cells assessed as increase in fluorescence intensity at 1.8 mg/kg, iv measured after 4 hrs by fluorescence imaging analysis. Conditions: in vivo. The series is classed as ADME, organism-based, Neoplasm.
A short description of series [25]: Toxicity in ICR mouse bearing mouse H22 cells assessed as damage in lung at 1.8 mg/kg, iv pretreated for 4 hrs followed by exposure to laser irradiation of 808 nm for 5 mins on every 2 days treated for 15 days by H and E staining based analysis. The series is classed as organism-based. Particulars: in vivo, 360 h, time 15 day.
Series [26] can be described thus: Toxicity in female BALB/c mouse bearing mouse 4T1 cells assessed as damage in lung at 1.8 mg/kg, iv pretreated for 4 hrs followed by exposure to laser irradiation of 808 nm for 5 mins on every 2 days treated for 15 days by H and E staining based analysis. Particulars: in vivo, 360 h, time 15 day. The class given is organism-based.

Each structure is given as a SMILES string. The source made the active and inactive calls. The calls are words filed in the database; no cut-off is given here.

As for `COCCOCCOCCN1/C(=C/C=C/C(=C/C=C/C2=[N+](CCOCCOCCOC)c3ccccc3C2(C)C)C(=O)OC)C(C)(C)c2ccccc21.[I-]`, the result in the series with 4T1 [1], with 4T1 [6], in the series on 4T1 [9] and in the series on 4T1 [12] was Active. Also, the Activity entry is “Non-toxic” in series [2]; “Non-toxic” in series [3]; “Not active; Minor Cell Damage Was Observed” in the series on 4T1 [5]; 55% in the series on 4T1 [8]; “Active; Compound Exhibited Superior Effect Among Tested Compounds” with Mus musculus [10]; 18 g in series [13]. The Activity entry in series [14], in series [15] and in [16] was “Non-toxic” throughout. Further, in the series on 4T1 [4], the inhibition entry was “Active”. Further, in series [7], the Drug uptake result is “Active”. Further, the outcome in the series with 4T1 [11] was inactive.

As to `COC(=O)C(=C\C=C\C1=[N+](C)c2ccccc2C1(C)C)/C=C/C=C1/N(C)c2ccccc2C1(C)C.[I-]`, the Activity entry in [17] was “Non-toxic”; in [18], “Non-toxic”; in series [19], “Non-toxic”; in [22], “Non-toxic”; in the series with HepG2, “Not active; Limited Photo-Thermal Toxicity Was Observed”; in [25] it was “Non-toxic”. Besides, the Activity entry in [26] is reported as “Non-toxic”. In the series with Mus musculus [20], the outcome was Active. Moreover, the Drug excretion result in series [21] is recorded as “Active”. For the same compound, the outcome in the series with 4T1 [23] was inactive. The Drug uptake result in [24] was “Active”.
